Experimental data as given in PMC5484788, “Development of a common carp (Cyprinus carpio) pregnane X receptor (cPXR) transactivation reporter assay and its activation by azole fungicides and pharmaceutical chemicals” (Toxicology in Vitro, 2017).
Read-outs that look alike come from different tables or passages of the source.

What was measured:
hPXR = biological target: T1, hPXR (Homo sapiens, UniProt O75469); assay: human PXR (hPXR) luciferase transactivation reporter assay, pGL4.24-6xPXRE reporter, COS-7 cells; conditions: for maximal effect (Emax) hPXR, times that of the control: COS-7 cells, 44 h, relative to DMSO control
T1 sequence (O75469 1-473 isoform O75469-7): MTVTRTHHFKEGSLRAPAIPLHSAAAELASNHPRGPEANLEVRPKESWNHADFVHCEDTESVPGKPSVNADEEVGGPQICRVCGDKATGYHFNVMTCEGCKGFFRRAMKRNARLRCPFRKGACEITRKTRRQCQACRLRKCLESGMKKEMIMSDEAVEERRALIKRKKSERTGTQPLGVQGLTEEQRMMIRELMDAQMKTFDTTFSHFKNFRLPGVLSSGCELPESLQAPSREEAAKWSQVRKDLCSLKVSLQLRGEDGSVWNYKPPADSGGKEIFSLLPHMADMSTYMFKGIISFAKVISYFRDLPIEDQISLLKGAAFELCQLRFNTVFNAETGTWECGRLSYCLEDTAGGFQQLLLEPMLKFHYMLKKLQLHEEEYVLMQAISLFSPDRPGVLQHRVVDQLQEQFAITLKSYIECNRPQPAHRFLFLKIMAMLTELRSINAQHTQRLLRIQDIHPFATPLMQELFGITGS
Description: Human PXR (hPXR) clone cDNA was purchased from Promega. […] The following PCR protocol was employed: 21 cycles of denaturation at 98 °C for 10 s, annealing at 60 °C for 5 s and elongation at 72 °C for 15 s. The purified product was then ligated into the eukaryotic expression vector pcDNA3.1(+) (Invitrogen) using the correspondent restriction enzymes and T4 DNA ligase (Promega).
(§1) A reporter vector was constructed based on several variations of the PXR response element (PXRE; Fig. 1). The PXRE occurs either as a direct or everted repeat of the consensus motif […], spaced by between 3 and 8 nucleotides. The PXRE sequence created here was based on that reported in [Xie et al. (2000)]. […] To maximise reporter efficiency, a further PXRE motif was added either side of the previously generated long chain oligo using PCR. […] The following PCR conditions were employed: 21 cycles of denaturation at 98 °C for 10 s, annealing at 60 °C for 5 s and elongation at 72 °C for 30 s. After purification, and using the appropriate restriction enzymes KpnI and HindIII, the obtained fragment was subsequently ligated into the pGL4.24[luc2P/minP] vector (Promega) which contains the firefly (Photinus pyralis) luciferase (luc2P) gene, to create the pGL4.24-6xPXRE reporter construct.
(§2) The cells were maintained at subconfluent densities and sub-cultured when reaching 80% confluency.
(§3) For transfection assays, cells were seeded in 24-well plates at 5 × 10^4 cells well^− 1 in phenol-red free DMEM (supplemented with 10% charcoal/dextran-treated foetal bovine serum (Hyclone). After 24 h, the cells were transiently transfected with 200 ng of either pcDNA3.1(+)/cPXR or pcDNA3.1(+)/hPXR, 400 ng of reporter construct (either MMTV/luc2/pGL4 (Promega) or pGL4.24-6xPXRE) and 100 ng of pRL-TK (driving the Renilla reniformis luciferase gene as an internal control to normalise for variations in transfection efficiency) using Fugene HD transfection reagent (Promega) in serum-free medium according to the manufacturer's protocol. Four hours after transfection, cells were treated with PXR agonists (see below). Forty-eight hours after transfection, cells were lysed and the luciferase activities of the cells were measured by a chemiluminescence assay with Dual-Luciferase Reporter Assay System (Promega) according to the manufacturer's instructions. Luminescence was measured using an Infinite 200 Pro plate reader (Tecan, Grödig, Austria). Promoter activity was calculated as firefly (Photinus pyralis)-luciferase activity/sea pansy (R. reniformis)-luciferase activity. All transfections were done at least three times, employing triplicate sample points in each experiment.
(§4) In addition to the pGL4.24-6xPXRE reporter construct, a commercially available MMTV/luc2/pGL4 reporter vector (Promega) was tested as a reporter plasmid (i.e. for PXRE function), as it is known to contain various nuclear receptor response elements in the promoter region.

cPXR = cPXR (Cyprinus carpio, UniProt A0A1P8P0E9); assay: carp PXR (cPXR) luciferase transactivation reporter assay, pGL4.24-6xPXRE reporter, COS-7 cells; conditions: for transactivation of cPXR (result in words): concentration-response 10^-11 to 10^-5 M, pGL4.24-6xPXRE reporter
Sequence of cPXR (A0A1P8P0E9 entry or part of it): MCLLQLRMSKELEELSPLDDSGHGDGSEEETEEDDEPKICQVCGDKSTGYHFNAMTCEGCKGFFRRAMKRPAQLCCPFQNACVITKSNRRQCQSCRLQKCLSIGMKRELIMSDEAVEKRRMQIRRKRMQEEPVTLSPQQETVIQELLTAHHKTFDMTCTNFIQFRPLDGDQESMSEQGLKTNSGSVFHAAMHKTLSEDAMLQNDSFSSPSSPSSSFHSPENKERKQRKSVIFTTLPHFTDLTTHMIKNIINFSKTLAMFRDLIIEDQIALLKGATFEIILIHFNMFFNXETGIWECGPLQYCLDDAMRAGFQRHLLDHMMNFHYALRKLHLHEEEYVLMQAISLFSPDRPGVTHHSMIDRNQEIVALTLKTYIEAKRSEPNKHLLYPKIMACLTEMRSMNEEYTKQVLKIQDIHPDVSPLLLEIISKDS
Description: For this, cDNA was reverse transcribed from 1 μg of carp liver total RNA as described above and amplified using the Advantage 2 DNA polymerase mix (Clontech) according to the manufacturer's instructions. The resulting PCR product was purified and sequenced to confirm the full sequence length and sub-cloned into pGEM-T Easy vector (Promega) following the manufacturer's recommendations. Plasmid DNA was isolated using the Wizard Plus SV minipreps DNA Purification system (Promega) according to manufacturer's instructions. Using the BamHI and EcoRV sites, the cPXR sequences was subsequently ligated into the eukaryotic expression vector pcDNA3.1(+) (Invitrogen) using the correspondent restriction enzymes (New England Biolabs, Hitchin, UK) and T4 DNA ligase (Promega).
as §1, §2, §3, §4

FHM PXR = tested on: FHM PXR; set-up: method as in Milnes et al., 2008; conditions: exposure to 50 μM; ref Milnes et al., 2008; cited from earlier work
zebrafish PXR = conditions: ref Bainy et al., 2013, cited from earlier work
PXR from the pufferfish = conditions: 50 μM; ref Milnes et al., 2008; cited from earlier work
COS-7 cells = assay: toxicity to COS-7 cells in the transactivation assays (inhibited cell growth); assay type: cell-based; conditions: 100 μM, in both cPXR and hPXR assays
[1] = concentration-response 10^-11 to 10^-5 M, pGL4.24-6xPXRE reporter

Compound	transactivation of hPXR (result in words) (hPXR; [1])	transactivation of cPXR (result in words) (cPXR)	also measured
CC(C)NCC(O)COc1ccc(CC(N)=O)cc1 (stereo not shown) [ATN, atenolol]	did not induce transactivation	did not induce transactivation	–
CC(C)(Oc1ccc(Cl)cc1)C(=O)O [CFA, clofibric acid]	did not induce transactivation	did not induce transactivation	–
Clc1ccccc1C(c1ccccc1)(c1ccccc1)n1ccnc1 [CTZ, clotrimazole]	–	–	EC50 (hPXR): 0.88 µM; maximal effect (Emax) hPXR, times that of the control (hPXR; pGL4.24-6xPXRE reporter): 4.8 x-fold; FHM PXR up-regulation (FHM PXR): up to 35 times; zebrafish PXR up-regulation above controls (zebrafish PXR; exposure concentrations between 0.5 and 50 μM, Milnes et al., 2008, Moore et al., 2000): 8 fold; lower activation of zebrafish full-length PXR compared with zebrafish PXR-LBD construct (zebrafish PXR): 90%
O=C(O)Cc1ccccc1Nc1c(Cl)cccc1Cl [DIC, diclofenac]	–	did not induce transactivation	transactivation of hPXR (result in words) (hPXR): did not induce transactivation
C#C[C@]1(O)CC[C@H]2[C@@H]3CCc4cc(O)ccc4[C@H]3CC[C@@]21C [EE2, 17α-ethinyloestradiol]	–	activated	concentration at which transactivation of hPXR was induced (hPXR): 10 µM; transactivation of hPXR (result in words) (hPXR): activate hPXR; concentration at which transactivation of cPXR was induced (cPXR; only concentration giving induction, range 10^-11 to 10^-5 M): 10 µM
Cc1ccc(C)c(OCCCC(C)(C)C(=O)O)c1 [GEM, gemfibrozil]	did not induce transactivation	did not induce transactivation	–
CC(C)Cc1ccc(C(C)C(=O)O)cc1 (stereo not shown) [IBU, ibuprofen]	–	did not induce transactivation	–
CC(=O)N1CCN(c2ccc(OCC3COC(Cn4ccnc4)(c4ccc(Cl)cc4Cl)O3)cc2)CC1 (stereo not shown) [KTZ, ketoconazole]	had no effect	had no effect	–
Clc1ccc(COC(Cn2ccnc2)c2ccc(Cl)cc2Cl)c(Cl)c1 (stereo not shown) [MCZ, miconazole]	induced transactivational activity	–	–
CCCC1COC(Cn2cncn2)(c2ccc(Cl)cc2Cl)O1 (stereo not shown) [PCZ, propiconazole]	induced transactivational activity	induced transactivational activity	EC50 (cPXR): 0.213 µM
CC(C)NCC(O)COc1cccc2ccccc12 (stereo not shown) [Propranolol, propranolol]	–	–	EC50 (hPXR): 0.044 µM
CO[C@H]1/C=C/O[C@@]2(C)Oc3c(C)c(O)c4c(O)c(c(/C=N/N5CCN(C)CC5)c(O)c4c3C2=O)NC(=O)/C(C)=C\C=C\[C@H](C)[C@H](O)[C@@H](C)[C@@H](O)[C@@H](C)[C@H](OC(C)=O)[C@@H]1C [RIF, rifampicin]	–	not activated	activation of hPXR compared with control, single concentration (hPXR; 1 μM (10^-6 M), pGL4.24-6xPXRE reporter, reporter plasmid comparison): significant activation; maximal effect (Emax) hPXR, times that of the control (hPXR; pGL4.24-6xPXRE reporter): 6.4 x-fold; activation of pufferfish PXR (PXR from the pufferfish): activate
CC/C(=C(\c1ccccc1)c1ccc(OCCN(C)C)cc1)c1ccccc1 [TAM, tamoxifen]	–	had no effect	toxicity to COS-7 cells (inhibited cell growth) (COS-7 cells): toxic
